Assay results published in patent US20230148005A1, “MACROCYCLIC COMPOUNDS AND USES THEREOF” (THESEUS PHARMACEUTICALS, INC., priority 2020, published 2023).

Key:
[1] = molecular target: EGFR^L858R (Homo sapiens, UniProt P00533, L858R); experiment: in vitro kinase assay (HTRF KinEASE-TK kit), L; assay type: biochemical; conditions: kinase inhibition
From the text: (§1) Assays using an in vitro kinase assay kit (HTRF KinEASE-TK kit) can be used to study the inhibitory activity of compounds described herein with respect to EGFR mutants such as EGFR^L858R, EGFR^L58R/T790M, and EGFR^L858R/T790M/C^797S.

[2] = molecular target: EGFR^L58R/T790M (Homo sapiens, UniProt P00533, L858R/T790M); experiment: in vitro kinase assay (HTRF KinEASE-TK kit), LT; assay type: biochemical; conditions: kinase inhibition
Chain of EGFR^L58R/T790M (P00533 25-1210 T790M/L858R): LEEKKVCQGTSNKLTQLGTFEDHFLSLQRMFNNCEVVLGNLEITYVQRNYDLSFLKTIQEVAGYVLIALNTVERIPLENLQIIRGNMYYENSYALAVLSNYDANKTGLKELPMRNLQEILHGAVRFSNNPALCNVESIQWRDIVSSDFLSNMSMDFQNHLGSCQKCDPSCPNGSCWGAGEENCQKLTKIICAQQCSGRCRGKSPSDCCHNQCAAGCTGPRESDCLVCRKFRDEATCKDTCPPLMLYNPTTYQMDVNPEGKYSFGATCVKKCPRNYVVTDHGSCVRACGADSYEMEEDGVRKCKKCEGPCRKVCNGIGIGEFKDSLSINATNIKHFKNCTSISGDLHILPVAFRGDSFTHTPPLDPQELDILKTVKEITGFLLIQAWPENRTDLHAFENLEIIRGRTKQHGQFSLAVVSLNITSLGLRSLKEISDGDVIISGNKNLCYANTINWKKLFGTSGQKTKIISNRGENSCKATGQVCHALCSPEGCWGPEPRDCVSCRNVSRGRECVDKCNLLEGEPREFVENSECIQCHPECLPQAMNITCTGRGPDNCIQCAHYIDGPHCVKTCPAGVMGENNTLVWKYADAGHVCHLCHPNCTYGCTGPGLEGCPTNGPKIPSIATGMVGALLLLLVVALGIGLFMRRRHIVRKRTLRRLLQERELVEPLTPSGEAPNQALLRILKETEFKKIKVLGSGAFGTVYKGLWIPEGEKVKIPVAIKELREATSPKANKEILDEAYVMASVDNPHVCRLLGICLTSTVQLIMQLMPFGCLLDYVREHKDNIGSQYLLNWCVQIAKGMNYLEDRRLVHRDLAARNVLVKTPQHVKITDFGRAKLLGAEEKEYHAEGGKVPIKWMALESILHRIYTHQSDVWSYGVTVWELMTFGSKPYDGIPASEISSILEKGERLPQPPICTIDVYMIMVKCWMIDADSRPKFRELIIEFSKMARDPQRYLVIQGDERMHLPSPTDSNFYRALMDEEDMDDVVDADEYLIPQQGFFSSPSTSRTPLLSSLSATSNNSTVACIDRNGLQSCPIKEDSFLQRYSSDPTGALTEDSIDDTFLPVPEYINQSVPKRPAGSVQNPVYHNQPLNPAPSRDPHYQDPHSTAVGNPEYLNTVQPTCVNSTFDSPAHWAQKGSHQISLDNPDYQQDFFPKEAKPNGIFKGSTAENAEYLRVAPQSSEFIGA
From the text: as §1

[3] = molecular target: Ba/F3 EGFR-Del19/T790M/C797S (Homo sapiens, UniProt P00533, T790M/C797S, cells depend on it, form not given); experiment: Ba/F3 viability assay (CellTiter-Glo), DTC; assay type: cell-based; conditions: anti-proliferation, read-out: BaF3 DTC IC50
Outline: (§2)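 Antiproliferative activity is assessed through a cell viability read-out, run in parallel across the mutant-EGFR-driven and parental Ba/F3 cells.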

[4] = molecular target: Ba/F3 EGFR-Del19/T790M (Homo sapiens, UniProt P00533, T790M, cells depend on it, form not given); experiment: Ba/F3 viability assay (CellTiter-Glo), DT; assay type: cell-based; conditions: anti-proliferation, read-out: BaF3 DT IC50
Outline: as §2

[5] = molecular target: EGFR^L858R/T790M/C^797S (Homo sapiens, UniProt P00533, C797S/L858R/T790M); experiment: in vitro kinase assay (HTRF KinEASE-TK kit), LTC; assay type: biochemical; conditions: kinase inhibition
Chain of EGFR^L858R/T790M/C^797S (P00533 25-1210 T790M/C797S/L858R): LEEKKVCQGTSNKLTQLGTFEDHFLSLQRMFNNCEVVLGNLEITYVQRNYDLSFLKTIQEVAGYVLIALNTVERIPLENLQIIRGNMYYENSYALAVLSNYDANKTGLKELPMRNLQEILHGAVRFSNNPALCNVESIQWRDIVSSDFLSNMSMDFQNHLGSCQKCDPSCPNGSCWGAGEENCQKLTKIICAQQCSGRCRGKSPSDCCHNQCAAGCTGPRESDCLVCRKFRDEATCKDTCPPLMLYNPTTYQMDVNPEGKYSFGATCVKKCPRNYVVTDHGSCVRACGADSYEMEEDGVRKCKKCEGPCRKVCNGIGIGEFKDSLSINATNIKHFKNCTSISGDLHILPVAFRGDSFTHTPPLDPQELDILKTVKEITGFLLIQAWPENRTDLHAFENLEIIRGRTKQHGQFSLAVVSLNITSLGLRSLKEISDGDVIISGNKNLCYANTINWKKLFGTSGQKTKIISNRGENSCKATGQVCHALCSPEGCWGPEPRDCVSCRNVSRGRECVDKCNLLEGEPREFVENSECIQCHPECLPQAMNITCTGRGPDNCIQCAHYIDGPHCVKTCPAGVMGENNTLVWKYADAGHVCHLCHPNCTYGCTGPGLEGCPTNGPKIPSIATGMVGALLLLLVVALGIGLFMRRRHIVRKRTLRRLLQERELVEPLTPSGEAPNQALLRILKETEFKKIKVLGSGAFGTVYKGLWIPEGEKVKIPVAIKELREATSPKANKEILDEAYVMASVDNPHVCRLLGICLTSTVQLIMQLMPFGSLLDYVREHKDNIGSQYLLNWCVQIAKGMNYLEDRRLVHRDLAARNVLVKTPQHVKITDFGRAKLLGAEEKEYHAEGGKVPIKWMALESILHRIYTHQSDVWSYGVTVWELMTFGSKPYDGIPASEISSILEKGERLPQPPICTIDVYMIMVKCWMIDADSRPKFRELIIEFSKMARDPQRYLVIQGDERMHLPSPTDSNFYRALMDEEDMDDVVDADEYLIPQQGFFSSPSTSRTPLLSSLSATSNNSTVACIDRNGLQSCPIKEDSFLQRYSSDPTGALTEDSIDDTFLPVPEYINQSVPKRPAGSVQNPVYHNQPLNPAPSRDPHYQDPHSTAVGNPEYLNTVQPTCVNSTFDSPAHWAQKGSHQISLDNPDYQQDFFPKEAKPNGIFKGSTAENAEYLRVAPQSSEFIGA
From the text: as §1

[6] = molecular target: Ba/F3 EGFR-Del19/C797S (Homo sapiens, UniProt P00533, C797S, cells depend on it, form not given); experiment: Ba/F3 viability assay (CellTiter-Glo), DC; assay type: cell-based; conditions: anti-proliferation, read-out: BaF3 DC IC50
Chain of Ba/F3 EGFR-Del19/C797S (P00533 with tags, fused parts or gaps DEL746-750/C797S, form open): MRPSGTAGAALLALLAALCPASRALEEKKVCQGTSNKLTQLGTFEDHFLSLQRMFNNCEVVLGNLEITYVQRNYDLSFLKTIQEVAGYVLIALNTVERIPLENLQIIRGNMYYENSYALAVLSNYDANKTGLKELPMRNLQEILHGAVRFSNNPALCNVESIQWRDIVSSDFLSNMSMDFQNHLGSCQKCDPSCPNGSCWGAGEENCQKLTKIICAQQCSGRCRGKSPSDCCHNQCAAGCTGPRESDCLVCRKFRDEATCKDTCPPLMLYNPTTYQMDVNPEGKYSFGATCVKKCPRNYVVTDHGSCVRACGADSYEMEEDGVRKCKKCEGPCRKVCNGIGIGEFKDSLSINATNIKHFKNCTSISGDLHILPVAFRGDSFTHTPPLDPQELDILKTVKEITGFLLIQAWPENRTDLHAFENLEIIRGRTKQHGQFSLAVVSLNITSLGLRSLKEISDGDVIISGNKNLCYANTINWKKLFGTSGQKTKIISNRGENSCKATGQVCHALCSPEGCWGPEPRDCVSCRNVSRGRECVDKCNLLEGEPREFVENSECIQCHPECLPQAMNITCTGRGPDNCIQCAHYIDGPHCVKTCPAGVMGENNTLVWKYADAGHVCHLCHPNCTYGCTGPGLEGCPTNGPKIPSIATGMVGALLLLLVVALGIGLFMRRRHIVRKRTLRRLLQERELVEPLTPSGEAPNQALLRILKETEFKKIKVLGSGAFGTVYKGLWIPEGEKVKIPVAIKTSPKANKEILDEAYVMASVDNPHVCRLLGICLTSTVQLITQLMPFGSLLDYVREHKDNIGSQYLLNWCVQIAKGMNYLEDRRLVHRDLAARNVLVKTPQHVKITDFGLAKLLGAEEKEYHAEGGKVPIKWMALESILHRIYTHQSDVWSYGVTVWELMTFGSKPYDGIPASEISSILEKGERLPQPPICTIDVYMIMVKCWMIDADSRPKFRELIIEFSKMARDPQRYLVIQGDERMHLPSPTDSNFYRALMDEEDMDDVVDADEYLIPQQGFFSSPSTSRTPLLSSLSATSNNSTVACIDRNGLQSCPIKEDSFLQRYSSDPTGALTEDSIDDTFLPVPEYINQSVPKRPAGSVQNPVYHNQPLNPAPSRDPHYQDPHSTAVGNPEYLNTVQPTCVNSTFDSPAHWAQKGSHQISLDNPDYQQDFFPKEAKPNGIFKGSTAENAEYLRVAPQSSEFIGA
Outline: as §2

[7] = test system: Ba/F3 Parental; experiment: Ba/F3 viability assay (CellTiter-Glo), parental; assay type: cell-based; conditions: Mus musculus, BaF3, anti-proliferation
Outline: as §2

Chain of EGFR^L858R (P00533 25-1210 L858R): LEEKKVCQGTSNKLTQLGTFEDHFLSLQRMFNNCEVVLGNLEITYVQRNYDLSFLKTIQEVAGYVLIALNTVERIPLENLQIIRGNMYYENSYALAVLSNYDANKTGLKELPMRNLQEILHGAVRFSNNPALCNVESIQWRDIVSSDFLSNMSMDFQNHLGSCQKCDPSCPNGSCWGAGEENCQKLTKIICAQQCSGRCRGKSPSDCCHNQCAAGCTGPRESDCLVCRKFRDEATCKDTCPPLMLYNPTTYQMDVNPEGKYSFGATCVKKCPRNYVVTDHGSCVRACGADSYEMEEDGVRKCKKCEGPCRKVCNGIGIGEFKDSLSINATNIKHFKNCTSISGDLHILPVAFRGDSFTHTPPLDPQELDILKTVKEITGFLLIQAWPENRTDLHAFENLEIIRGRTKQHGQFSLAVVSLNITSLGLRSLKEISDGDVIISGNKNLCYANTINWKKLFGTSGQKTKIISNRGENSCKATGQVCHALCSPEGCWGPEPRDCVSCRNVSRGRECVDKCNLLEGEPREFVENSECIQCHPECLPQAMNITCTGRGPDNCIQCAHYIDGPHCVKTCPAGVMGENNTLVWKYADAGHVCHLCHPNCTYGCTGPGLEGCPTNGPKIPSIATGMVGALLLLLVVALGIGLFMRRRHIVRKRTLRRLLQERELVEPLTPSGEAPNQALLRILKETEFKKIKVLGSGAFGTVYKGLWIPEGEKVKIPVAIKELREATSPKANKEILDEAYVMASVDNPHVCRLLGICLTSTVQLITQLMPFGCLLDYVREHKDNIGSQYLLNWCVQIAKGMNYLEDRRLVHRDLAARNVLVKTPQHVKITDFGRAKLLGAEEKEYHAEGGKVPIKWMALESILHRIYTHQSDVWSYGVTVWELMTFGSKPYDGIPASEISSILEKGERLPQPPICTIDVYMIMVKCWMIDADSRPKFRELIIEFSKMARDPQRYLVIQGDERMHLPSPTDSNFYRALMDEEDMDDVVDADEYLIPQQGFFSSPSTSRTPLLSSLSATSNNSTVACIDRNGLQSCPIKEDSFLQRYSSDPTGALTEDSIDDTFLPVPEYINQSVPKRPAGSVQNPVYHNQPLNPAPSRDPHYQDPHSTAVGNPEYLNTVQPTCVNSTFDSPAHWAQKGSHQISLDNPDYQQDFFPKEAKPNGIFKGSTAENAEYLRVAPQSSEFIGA

SMILES	IC50 [1] [µM]	IC50 [2] [µM]	IC50 [5] [µM]	GI50 [3] [µM]	GI50 [4] [µM]	GI50 [6] [µM]	IC50 [7] [µM]
C[C@H]1CCOc2c(cnn2C)-c2nccc(n2)Nc2cc3c(cn2)c(-c2ccc(CN(C)CCF)n2C)nn31 [(184), N-[[5-[(16S)-11,16-dimethyl-13-oxa-2,6,10,11,17,18,22,25-octazapentacyclo[15.5.2.1^3,7.0^8,12.0^20,24]pentacosa-1(22),3,5,7(25),8(12),9,18,20,23-nonaen-19-yl]-1-methyl-pyrrol-2-yl]methyl]-2-fluoro-N-methyl-ethanamine]	< 0.01	< 0.01	< 0.01	< 0.01	< 0.01	0.01 to 0.1	0.1 to 1
C[C@H]1CCOc2c(cnn2C)-c2nccc(n2)Nc2cc3c(cn2)c(-c2cc4c(n2C)CCCN(C)C4)nn31 [(185)]	< 0.01	< 0.01	< 0.01	0.01 to 0.1	0.01 to 0.1	0.01 to 0.1	0.1 to 1
C[C@H]1CCOc2c(cnn2C)-c2nccc(n2)Nc2cc3c(cn2)c(-c2ccc(CN4CC[C@@H](N(C)C)C4)n2C)nn31 [(186)]	< 0.01	< 0.01	< 0.01	< 0.01	< 0.01	< 0.01	0.1 to 1
C[C@H]1CCOc2c(cnn2C)-c2nccc(n2)Nc2cc3c(cn2)c(-c2ccc(CN4CC[C@H](N(C)C)C4)n2C)nn31 [(187)]	< 0.01	< 0.01	< 0.01	< 0.01	< 0.01	< 0.01	0.1 to 1

More lines, main results first:

IC50 [1] [µM]	IC50 [2] [µM]	IC50 [5] [µM]	SMILES	GI50 [3] [µM]	GI50 [4] [µM]	GI50 [6] [µM]	IC50 [7] [µM]
< 0.01	< 0.01	< 0.01	CC(C)NCc1ccc(-c2nn3c4cc(ncc24)Nc2ccnc(n2)-c2cnn(C)c2OCC[C@@H]3C)n1C [(188)]	< 0.01	< 0.01	< 0.01	0.1 to 1
< 0.01	< 0.01	< 0.01	CC(C)N(C)Cc1ccc(-c2nn3c4cc(ncc24)Nc2ccnc(n2)-c2cnn(C)c2OCC[C@@H]3C)n1C [(189)]	< 0.01	< 0.01	< 0.01	0.1 to 1
< 0.01	< 0.01	< 0.01	C[C@H]1CCOc2c(cnn2C)-c2nccc(n2)Nc2cc3c(cn2)c(-c2ccc(CN4CCN(CCCF)CC4)n2C)nn31 [(190)]	< 0.01	< 0.01	< 0.01	0.1 to 1
< 0.01	< 0.01	< 0.01	CCn1c(CN(C)C)ccc1-c1nn2c3cc(ncc13)Nc1ccnc(n1)-c1cnn(C)c1OCC[C@@H]2C [(191)]	< 0.01	0.01 to 0.1	< 0.01	0.1 to 1
< 0.01	< 0.01	< 0.01	C[C@H]1CCOc2c(cnn2C)-c2nccc(n2)Nc2cc3c(cn2)c(-c2ccc(CN(C)CCCF)n2C)nn31 [(192)]	< 0.01	< 0.01	< 0.01	0.1 to 1
< 0.01	< 0.01	< 0.01	C[C@H]1CCOc2c(cnn2C)-c2nccc(n2)Nc2cc3c(cn2)c(-c2ccc(CN4CCN(CCF)CC4)n2C)nn31 [(193)]	< 0.01	< 0.01	< 0.01	0.1 to 1
